Entries after “also recorded” stand apart in the source; their conditions may differ.
Tests used:
[1] = tested on: cytokines in liver homogenate; assay: Reversal of established CCl4 cirrhosis: cytokines in liver homogenate by Luminex; format: in vivo, Wistar rats; details: cirrhotic rats, IFC-305 50 mg/kg i.p.
Protocol: FIGS. 4A to 4D refer to the obtained results for cytokines in liver homogenate evaluated by Luminex® in the different experimental groups of cirrhotic animals (Ci) treated with IFC-305 and saline for five and ten weeks (Ci SS 5s, Ci IFC 5s, Ci SS 10s, and Ci IFC 10s). Concentration (pg/mL)±standard deviation is shown.
(§1) 100 g male Wistar rats were used, with free access to food and water. Cirrhosis was induced with 25 μl of CCl4 in vegetable oil three times a week for ten weeks. Once cirrhosis is established, the animals were divided into five groups: group I, treatment with CCl4 is suspended, control animals of cirrhosis are sacrificed, groups II and III is allowed to proceed cirrhosis and received three intraperitoneal injections of saline per week for 5 to 10 weeks, groups IV and V received three intraperitoneal injections of the compound at a dose of 50 mg/kg for 5 to 10 weeks; at the moment of sacrifice, serum and liver samples taken.

[2] = tested on: total macrophages (HIS36+/CD11b+) and inflammatory phenotype Kupffer cells (CD163+/CD11b/c+ (M1)); assay: Reversal of established CCl4 cirrhosis: distribution of liver macrophages by flow cytometry; format: in vivo, Wistar rats; details: cirrhotic rats, IFC-305 50 mg/kg i.p., five and ten weeks
Protocol: FIGS. 6A and 6B relate to the obtained results regarding the distribution of macrophages. […] Percentage (%) of Kupffer cells with respect to control±standard error.
as §1

[3] = tested on: cytokines in liver homogenate; assay: Prevention of CCl4-induced cirrhosis: cytokines in liver homogenate by Luminex; format: in vivo, rats; details: CCl4+IFC-305 50 mg/Kg, 8 weeks
From the text: FIGS. 2A and 2B refer to the results obtained for cytokines in liver homogenate evaluated by Luminex® at 8 weeks of administration of CCl4 and CCl4+IFC-305. Concentration (pg/mL)±standard deviation is shown.
(§2) Cirrhosis is a disease chronic degenerative characterized by diffuse fibrosis and regenerative nodules distorting tissue architecture. The diffuse fibrosis is supported by a chronic inflammatory process. During this process, chemokines and cytokines that favor this process are generated. In a model of prevention of cirrhosis by treatment with adenosine aspartate, knowing having an antifibrogenic effect, would allow knowing the effect of this drug during the establishment of cirrhosis for 4, 6 and 8 weeks and its effect on response activation immune and inflammation.
(§3) In this study, four groups of six male rats of 100 g to 110 g were formed; the rats were treated simultaneously under the same doses with CCl4 (25 μl of carbon tetrachloride in vegetable oil) and IFC-305 (50 mg/Kg). All treatments were given three times a week for 4, 6 and 8 weeks; at the moment of sacrifice, of serum and liver were taken.

[4] = tested on: Kupffer cells (CD163+/CD11b+); assay: Prevention of CCl4-induced cirrhosis: kinetic of Kupffer cells in the liver by flow cytometry; format: in vivo, rats; details: CCl4+IFC-305 vs CCl4; 4, 6, 8 and 10 weeks
Protocol: FIG. 5 refers to the kinetic of Kupffer cells (CD163+/CD11b+) in the liver, assessed by flow cytometry at 4, 6, 8 and 10 weeks, administration with CCl4, IFC-305 and CCl4+IFC-305 to same time. % Kupffer cells±standard error.
as §3
FIG. 5 refers to a graphic showing the total number of Kupffer cells quantified with CD163+/CD11b/c+ for 4, 6, 8 and 10 weeks of treatment with CCl4, with an increase during the development of cirrhosis that decreases with the treatment of the compound IFC-305.

Arginase I = assay: Reversal of established CCl4 cirrhosis: Western blot of Arginase I in liver homogenate; format: in vivo, Wistar rats; details: cirrhotic rats, IFC-305 50 mg/kg i.p., five and ten weeks
Protocol: FIG. 7 refers to Western blot Arginase I. Expression of total protein in liver homogenate in the different experimental groups treated with IFC-305 and saline for five and ten weeks.
as §1

serum cytokine = assay: Prevention of CCl4-induced cirrhosis: serum cytokines by Luminex; format: in vivo, rats
From the text: FIGS. 1A to 1C refer to the obtained results for serum cytokine evaluated by Luminex® at 4, 6 and 8 weeks of administration of CCl4 and CCl4+IFC. Concentration (pg/mL)±standard deviation is shown.
as §2, §3

serum cytokines = assay: Reversal of established CCl4 cirrhosis: serum cytokines by Luminex; format: in vivo, Wistar rats; details: cirrhotic rats, IFC-305 50 mg/kg i.p. three times a week vs saline
Protocol: FIGS. 3A to 3C refer to the obtained results for serum cytokines evaluated by Luminex® in the different experimental groups of cirrhotic animals (Ci) treated with IFC-305 and saline for five and ten weeks (Ci SS 5s, Ci IFC 5s, Ci SS 10s and Ci IFC 10s post-treatment with CCl4). Concentration (pg/mL)±standard deviation is shown.
as §1

[5] = CCl4+IFC-305 50 mg/Kg three times a week vs CCl4, 4, 6 and 8 weeks

adenosine aspartate [IFC-305]
inflammatory cytokines in liver homogenate (cirrhosis high values) ([1]; 5 to 10 weeks): reduced | liver homogenate IL-1β ([1]; five and ten weeks): decreased compared to cirrhotic control | liver homogenate IL-4 ([1]; five and ten weeks): decreased compared to cirrhotic control | liver homogenate IL-6 ([1]; five and ten weeks): regulated | IL-10 (anti-inflammatory cytokine), liver homogenate ([1]; five and ten weeks, 50 mg/kg): increased | Kupffer cells with inflammatory phenotype (M1) CD163+/CD11b/c+ [2]: decrease; also recorded: decreasing during the progression of cirrhosis and markedly with the treatment | total macrophages (HIS36+/CD11b+) in the liver [2]: increases | liver homogenate IL-1β [3]: decreases | liver homogenate IL-4 [3]: decreases | liver homogenate IL-6 [3]: increase relative to the control | liver homogenate IL-10 [3]: decreases | liver homogenate IL-12 [3]: increase relative to the control | liver homogenate INF-γ [3]: increase relative to the control | liver homogenate MCP-1 [3]: increase relative to the control | liver homogenate IL-6 ([3]; listed as adenosine aspartate): increase | total number of Kupffer cells (CD163+/CD11b/c+) in the liver [4]: decreases | arginase (Arginase I) protein in liver homogenate, Western blot (Arginase I): more amount of enzyme | arginase (Arginase I) protein in liver homogenate, Western blot (Arginase I; 50 mg/kg): increased | serum IL-1β (serum cytokine; [5]): decreasing | serum IL-4 (serum cytokine; [5]): decreasing; also recorded: decreased | serum IL-6 (serum cytokine; CCl4+IFC-305 50 mg/Kg vs CCl4, 4 and 6 weeks): decreasing; also recorded: decrease | serum IL-6 (serum cytokine; CCl4+IFC-305 50 mg/Kg, 8 weeks): increase | serum IL-4 (serum cytokines; 5 weeks): kept in similar values to controls or less; also recorded: maintained in an equal range to the control or lower | serum IL-6 (serum cytokines; 5 weeks): kept in similar values to controls or less; also recorded: maintained in an equal range to the control or lower | serum IL-1β (serum cytokines; 10 weeks): kept in similar values to controls or less; also recorded: maintained in an equal range to the control or lower

Reference: patent publication US20160120894A1, “USE OF ADENOSINE ASPARTATE IN THE DI[…] M[…] INFLAMMATORY-[…] AND ITS REVERSAL” (UNIVERSIDAD NACIONAL AUTÓNOMA DE MÉXICO, priority 2013, published 2016)
